Starred links: 1 amine or outer side, 2 acyl side, 3 side chain; linkers in the order of their positions; H or OH if unused. Positions of bridges follow the written chain, without caps; N, C: chain ends. Non-standard residues stand in square brackets, D forms with d. Residues, ends and D or L forms follow the SMILES beside them. Groups on a side chain read outwards from the residue. *: point of attachment. C20 diacid = O=C(O)CCCCCCCCCCCCCCCCCCC(=O)*; γGlu = O=C(O)[C@H](CCC(=O)[*:2])N[*:1]; αMeL = CC(C)C[C@](C)(N)C(=O)O; Orn = NCCC[C@H](N)C(=O)O; CH2 = C([*:1])[*:2]
Assay: Food intake and body weight in normal rats, single SC dose
Format: in vivo, Sprague Dawley rats
Conditions: for Δ Body Weight: 96 hours post dose vs initial weights; for Cumulative Food Intake Change vs Vehicle: 96 hours post dose vs vehicle
Experimental: Male Sprague Dawley rats from Envigo RMS (Indianapolis, IN) are maintained on a chow diet (2014; Teklad Global, Envigo RMS, Indianapolis, IN) and single housed in a temperature-controlled facility (72.0° F.; 22.2° C.) with a reversed 12:12-hour light cycle (10 AM OFF) and free access to food and water. At 10 weeks of age, non-fasted body weights and initial food weights are recorded, and animals are administered a single subcutaneous injection (SC) of vehicle or acylated peptide (1 mL/kg), followed by daily measurements of body weight and food intake for 4 days post dose. Area under the curve analysis (AUC) is calculated for both body weight and food intake versus vehicle.

CC[C@H](C)[C@H](NC(=O)[C@@H]1CCCN1C(=O)CNC(=O)[C@H](Cc1ccccc1)NC(=O)[C@H](CC(N)=O)NC(=O)[C@H](Cc1c[nH]cn1)NC(=O)[C@H](CO)NC(=O)[C@H](CO)NC(=O)[C@H](CCCNC(=N)N)NC(=O)[C@@H](NC(=O)[C@H](CC(C)C)NC(=O)[C@H](Cc1ccccc1)NC(=O)[C@H](CCC(=O)O)NC(=O)[C@H](C)NC(=O)[C@](C)(CC(C)C)NC(=O)[C@H](CCCN)NC(=O)CNC(=O)[C@@H](NC(=O)[C@H](C)NC(=O)[C@@H]1CSCSC[C@H](NC(=O)[C@@H](N)CCCCNC(=O)CC[C@H](NC(=O)CC[C@H](NC(=O)CCCCCCCCCCCCCCCCCCC(=O)O)C(=O)O)C(=O)O)C(=O)N[C@@H](CCC(=O)O)C(=O)N[C@@H]([C@@H](C)O)C(=O)N[C@@H](C)C(=O)N[C@@H]([C@@H](C)O)C(=O)N1)[C@@H](C)O)C(C)C)C(=O)N[C@@H](CC(C)C)C(=O)N1CCC[C@H]1C(=O)N1CCC[C@H]1C(=O)N[C@H](C(=O)N[C@@H](CCC(=O)O)C(=O)N[C@H](C(=O)NCC(=O)N[C@@H](CO)C(=O)N[C@@H](CC(N)=O)C(=O)N[C@H](C(=O)N[C@@H](Cc1ccc(O)cc1)C(N)=O)[C@@H](C)O)C(C)C)[C@@H](C)O [Compound VIII] (H-K([γGlu-γGlu-C20 diacid])CETATCATG[Orn][αMeL]AEFLVRSSHNFGPILPPTEVGSNTY-NH2; linker 2-7 via CH2)
Δ Body Weight (0.1 nmol/kg SC single dose): 2.0% | Cumulative Food Intake Change vs Vehicle (0.1 nmol/kg SC single dose): 1.3% | Δ Body Weight (0.3 nmol/kg SC single dose): 1.6% | Cumulative Food Intake Change vs Vehicle (0.3 nmol/kg SC single dose): 3.2% | Δ Body Weight (1 nmol/kg SC single dose): −1.0% | Cumulative Food Intake Change vs Vehicle (1 nmol/kg SC single dose): −17.5% | Δ Body Weight (3 nmol/kg SC single dose): −3.9% | Cumulative Food Intake Change vs Vehicle (3 nmol/kg SC single dose): −37.7% | Δ Body Weight (10 nmol/kg SC single dose): −7.2% | Cumulative Food Intake Change vs Vehicle (10 nmol/kg SC single dose): −58.5% | Δ Body Weight (30 nmol/kg SC single dose): −10.8% | Cumulative Food Intake Change vs Vehicle (30 nmol/kg SC single dose): −67.0% | Δ Body Weight (100 nmol/kg SC single dose): −13.8% | Cumulative Food Intake Change vs Vehicle (100 nmol/kg SC single dose): −75.2% | Δ Body Weight (300 nmol/kg SC single dose): −13.6% | Cumulative Food Intake Change vs Vehicle (300 nmol/kg SC single dose): −74.9% | Δ Body Weight (1000 nmol/kg SC single dose): −18.9% | Cumulative Food Intake Change vs Vehicle (1000 nmol/kg SC single dose): −84.7%
